molecular target: Growth factor receptor-bound protein 2 (Homo sapiens, UniProt P62993); assay: Inhibitory concentration required against Src homology (SH2) domain of Growth factor receptor bound protein 2 by ELISA binding assay

IC50 [nM]	Compound
84.4	COc1cc2cccc(CCCNC(=O)[C@H](CC(N)=O)NC(=O)C3(NC(=O)[C@H](Cc4ccc(CP(=O)(O)O)cc4)NC(C)=O)CCCCC3)c2cc1OC
11.1	CC(=O)N[C@@H](Cc1ccc(CP(=O)(O)O)cc1)C(=O)NC1(C(=O)N[C@@H](CC(N)=O)C(=O)NCCCc2ccc3cccc(O)c3c2)CCCCC1
42.9	CC(=O)N[C@@H](Cc1ccc(CP(=O)(O)O)cc1)C(=O)NC1(C(=O)N[C@@H](CC(N)=O)C(=O)NCCCc2cccc3ccccc23)CCCCC1
130	COc1ccc2c(CCCNC(=O)[C@H](CC(N)=O)NC(=O)C3(NC(=O)[C@H](Cc4ccc(CP(=O)(O)O)cc4)NC(C)=O)CCCCC3)cccc2c1

Compound	IC50 [nM]
CC(=O)N[C@@H](Cc1ccc(CP(=O)(O)O)cc1)C(=O)NC1(C(=O)N[C@@H](CC(N)=O)C(=O)NCCCc2cccc3ccc(O)cc23)CCCCC1	24.6
CC(=O)N[C@@H](Cc1ccc(CP(=O)(O)O)cc1)C(=O)NC1(C(=O)N[C@@H](CC(N)=O)C(=O)NCCCc2cccc3cc(O)ccc23)CCCCC1	42.7
CC(=O)N[C@@H](Cc1ccc(CP(=O)(O)O)cc1)C(=O)NC1(C(=O)N[C@@H](CC(N)=O)C(=O)NCCCc2c(O)ccc3ccccc23)CCCCC1 [CGP-78850]	43
